Source: patent US20260022143A1, “Cyclic Peptide Inhibitors of IL-23” (JANSSEN PHARMACEUTICA NV, priority 2022, published 2026)
Starred links: 1 amine or outer side, 2 acyl side, 3 side chain; linkers in the order of their positions; H or OH if unused. Positions of bridges follow the written chain, without caps; N, C: chain ends. Non-standard residues stand in square brackets, D forms with d. Residues, ends and D or L forms follow the SMILES beside them. *: point of attachment. Me3N+CH2CH2(OCH2CH2)4CO = C[N+](C)(C)CCOCCOCCOCCOCCC(=O)*; Me3N+(CH2)2O(CH2)2O(CH2)2CO = C[N+](C)(C)CCOCCOCCC(=O)*; X35 = Cc1cccc2c(C[C@H](N[*:1])C(=O)[*:2])cn(C)c12; Trp(7-Me) = Cc1cccc2c(C[C@H](N)C(=O)O)c[nH]c12; d(hLys(Me3)) = C[N+](C)(C)CCCCC[C@@H](N)C(=O)O; Decanoyl(3,6,9-trioxa) = COCCOCCOCC(=O)*; Dab(NMeAc) = CC(=O)N(C)CC[C@H](N)C(=O)O; X1 = CN(CC[C@H](N[*:1])C(=O)[*:2])[*:3]; 2Nal = N[C@@H](Cc1ccc2ccccc2c1)C(=O)O; AEF = NCCOc1ccc(C[C@H](N)C(=O)O)cc1; X24 = C[N+](C)(CCN[*:1])CC(=O)[*:2]; 3Pal = N[C@@H](Cc1cccnc1)C(=O)O; Lys(Me) = CNCCCC[C@H](N)C(=O)O; X5 = C[N+](C)(C)CCOCCOCC(=O)*; Pen = CC(C)(S)[C@H](N)C(=O)O; Thp = NC1(C(=O)O)CCOCC1; X3 = C[N+](C)(C)CCCCC*; Sar = CNCC(=O)O

Tests used:
[1] = target: T1, IL-23R (Homo sapiens, UniProt Q5VWK5); assay: IL23R Reporter Assay; format: cell-based; details: HEK293 cells containing IL-23R, IL-12RP1 and STAT-inducible firefly luciferase reporter; 10 ng/mL IL-23 (EC90); 5 h at 37° C.; read-out: IL23R Reporter Assay
T1 construct: host or cells: HEK293
T1 sequence (Q5VWK5 24-629): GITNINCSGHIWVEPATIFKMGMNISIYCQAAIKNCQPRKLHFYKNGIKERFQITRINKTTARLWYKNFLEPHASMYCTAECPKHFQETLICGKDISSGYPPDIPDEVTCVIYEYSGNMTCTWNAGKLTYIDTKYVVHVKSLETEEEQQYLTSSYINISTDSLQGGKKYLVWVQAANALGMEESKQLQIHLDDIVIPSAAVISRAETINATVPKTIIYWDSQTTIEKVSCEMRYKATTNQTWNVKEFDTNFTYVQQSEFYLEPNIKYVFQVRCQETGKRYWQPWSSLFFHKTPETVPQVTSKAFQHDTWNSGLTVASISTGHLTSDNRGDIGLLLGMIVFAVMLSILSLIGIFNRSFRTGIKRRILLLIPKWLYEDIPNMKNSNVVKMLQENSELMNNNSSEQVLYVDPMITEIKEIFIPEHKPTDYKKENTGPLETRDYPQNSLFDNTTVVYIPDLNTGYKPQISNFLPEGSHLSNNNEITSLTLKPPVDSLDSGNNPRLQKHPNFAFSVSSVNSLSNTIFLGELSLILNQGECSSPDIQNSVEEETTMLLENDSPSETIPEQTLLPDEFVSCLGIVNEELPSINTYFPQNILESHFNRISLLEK

[2] = Exposed Polar Surface Area (EPSA); format: physicochemical; details: SFC on Chirex 3014 column; sample 1 mM DMSO stock; read-out: EPSA
In short: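 Polarity measured by SFC on a Chirex 3014 column (35 °C, 4 mL/min) with methanol/ammonium formate in CO2 as gradient eluent. Retention times were normalised to EPSA (Å^2) against eight reference compounds.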

| SMILES | IC50 [1] | EPSA [2] |
| --- | --- | --- |
| CC(=O)NCCCC[C@@H]1NC(=O)[C@H](Cc2c[nH]c3c(C)cccc23)NC(=O)[C@H]([C@@H](C)O)NC(=O)[C@H](CC(N)=O)NC(=O)[C@@H](NC(C)=O)C(C)(C)SSC(C)(C)[C@@H](C(=O)N[C@@H](Cc2ccc(OCCN)cc2)C(=O)N[C@@H](Cc2ccc3ccccc3c2)C(=O)NC2(C(=O)N[C@@H](CCCCNC(C)=O)C(=O)N[C@@H](CC(N)=O)C(=O)N(C)C)CCOCC2)NC1=O [compound 153] (Ac-[Pen]NT[Trp(7-Me)]K(Ac)[Pen][AEF][2Nal][Thp]K(Ac)N-NMe2; disulfide 1-6 (inferred)) | 270 nM | 171 A^2 |
| CC(=O)N[C@H](CCCCC[N+](C)(C)C)C(=O)N[C@@H]1C(=O)N[C@@H](CC(=O)N(C)C)C(=O)N[C@@H]([C@@H](C)O)C(=O)N[C@@H](Cc2c[nH]c3c(C)cccc23)C(=O)N[C@@H](CCCCN(C)C(C)=O)C(=O)N[C@H](C(=O)N[C@@H](Cc2ccc(OCCN)cc2)C(=O)N[C@@H](Cc2ccc3ccccc3c2)C(=O)NC2(C(=O)N[C@@H](CCC(=O)O)C(=O)N[C@@H](CC(N)=O)C(=O)N[C@@H](Cc3cccnc3)C(=O)N(C)CC(=O)N(C)C)CCOCC2)C(C)(C)SSC1(C)C [compound 163, MeCO-hk(Me)3-Pen(3)-N(N(Me)2)-T-7MeW-K(NMeAc)-Pen(3)-AEF-2Nal-THP-E-N-3Pya-Sar-CON(Me)2] (Ac-[d(hLys(Me3))][Pen]D(NMe2)T[Trp(7-Me)][Lys(Me)](Ac)[Pen][AEF][2Nal][Thp]EN[3Pal][Sar]-NMe2; disulfide 2-7 (inferred)) | 3.2 nM | 168 A^2 |
| CC(=O)NCCCC[C@@H]1NC(=O)[C@H](Cc2cn(C)c3c(C)cccc23)NC(=O)[C@H]([C@@H](C)O)NC(=O)[C@H](CC(N)=O)NC(=O)[C@@H](NC(C)=O)C(C)(C)SSC(C)(C)[C@@H](C(=O)N[C@@H](Cc2ccc(OCCN)cc2)C(=O)N[C@@H](Cc2ccc3ccccc3c2)C(=O)NC2(C(=O)N[C@@H](CCC(=O)O)C(=O)N[C@@H](CC(N)=O)C(=O)N[C@@H](Cc3cccnc3)C(=O)N(C)CC(N)=O)CCOCC2)NC1=O [compound 166] (Ac-[Pen]NT[X35]K(Ac)[Pen][AEF][2Nal][Thp]EN[3Pal][Sar]-NH2; disulfide 1-6 (inferred)) | 3 nM | 179 A^2 |

Further lines, results first:

| IC50 [1] | EPSA [2] | SMILES |
| --- | --- | --- |
| 1.6 nM | 155 A^2 | COCCOCCOCC(=O)NCC[N+](C)(C)CC(=O)N[C@@H]1C(=O)N[C@@H](CC(=O)N(C)C)C(=O)N[C@@H]([C@@H](C)O)C(=O)N[C@@H](Cc2c[nH]c3c(C)cccc23)C(=O)N[C@@H](CCCCN(C)C(C)=O)C(=O)N[C@H](C(=O)N[C@@H](Cc2ccc(OCCN)cc2)C(=O)N[C@@H](Cc2ccc3ccccc3c2)C(=O)NC2(C(=O)N[C@@H](CCC(=O)N(C)C)C(=O)N[C@@H](CC(N)=O)C(=O)N[C@@H](Cc3cccnc3)C(=O)N(C)CC(N)=O)CCOCC2)C(C)(C)SSC1(C)C [compound 152, mPEG3CO-SP6-Pen(3)-N(N(Me)2)-T-7MeW-K(NMeAc)-Pen(3)-AEF-2Nal-THP-QNMe2-N-3Pya-Sar-CONH2] ({Decanoyl(3,6,9-trioxa)}-[X24][Pen]D(NMe2)T[Trp(7-Me)][Lys(Me)](Ac)[Pen][AEF][2Nal][Thp]E(NMe2)N[3Pal][Sar]-NH2; disulfide 2-7) |
| 2 nM | 155 A^2 | Cc1cccc2c(C[C@@H]3NC(=O)[C@H]([C@@H](C)O)NC(=O)[C@H](CC(N)=O)NC(=O)[C@@H](NC(=O)CCOCCOCC[N+](C)(C)C)C(C)(C)SSC(C)(C)[C@@H](C(=O)N[C@@H](Cc4ccc(OCCN)cc4)C(=O)N[C@@H](Cc4ccc5ccccc5c4)C(=O)NC4(C(=O)N[C@@H](CCC(=O)N(C)C)C(=O)N[C@@H](CC(N)=O)C(=O)N[C@@H](Cc5cccnc5)C(=O)N(C)CC(=O)N(C)C)CCOCC4)NC(=O)[C@H](CCC(=O)N(C)C)NC3=O)c[nH]c12 [compound 156, cPEG3aCO-Pen(3)-N-T-7MeW-Q(N(Me)2)-Pen(3)-AEF-2Nal-THP-Q(N(Me)2)-N-3Pya-Sar-CON(Me)2] ({Me3N+(CH2)2O(CH2)2O(CH2)2CO}-[Pen]NT[Trp(7-Me)]E(NMe2)[Pen][AEF][2Nal][Thp]E(NMe2)N[3Pal][Sar]-NMe2; disulfide 1-6) |
| 1.8 nM | 149 A^2 | CC(=O)N(C)CC[C@H](NC(=O)C1(NC(=O)[C@H](Cc2ccc3ccccc3c2)NC(=O)[C@H](Cc2ccc(OCCN)cc2)NC(=O)[C@H]2NC(=O)[C@H](CCC(=O)N(C)C)NC(=O)[C@H](Cc3c[nH]c4c(C)cccc34)NC(=O)[C@H]([C@@H](C)O)NC(=O)[C@H](CC(=O)N(C)C)NC(=O)[C@@H](NC(=O)CCOCCOCC[N+](C)(C)C)C(C)(C)SSC2(C)C)CCOCC1)C(=O)N[C@@H](CC(N)=O)C(=O)N[C@@H](Cc1cccnc1)C(=O)N(C)CC(=O)N(C)C [compound 159, cPEG3aCO-Pen(3)-N(N(Me)2)-T-7MeW-Q(N(Me)2)-Pen(3)-AEF-2Nal-THP-Dab(NMeAc)-N-3Pya-Sar-CON(Me)2] ({Me3N+(CH2)2O(CH2)2O(CH2)2CO}-[Pen]D(NMe2)T[Trp(7-Me)]E(NMe2)[Pen][AEF][2Nal][Thp][Dab(NMeAc)]N[3Pal][Sar]-NMe2; disulfide 1-6) |
| 4.3 nM | 151 A^2 | CC(=O)N(C)CCCC[C@@H]1NC(=O)[C@H](Cc2c[nH]c3c(C)cccc23)NC(=O)[C@H]([C@@H](C)O)NC(=O)[C@H](CC(=O)N(C)C)NC(=O)[C@@H](NC(=O)CCOCCOCC[N+](C)(C)C)C(C)(C)SSC(C)(C)[C@@H](C(=O)N[C@@H](Cc2ccc(OCCCCC[N+](C)(C)C)cc2)C(=O)N[C@@H](Cc2ccc3ccccc3c2)C(=O)NC2(C(=O)N[C@@H](CCC(=O)O)C(=O)N[C@@H](CC(N)=O)C(=O)N[C@@H](Cc3cccnc3)C(=O)N(C)CC(=O)N(C)C)CCOCC2)NC1=O [compound 165, cPEG3aCO-Pen(3)-N(N(Me)2)-T-7MeW-K(NMeAc)-Pen(3)-TMAPF-2Nal-THP-E-N-3Pya-Sar-CON(Me)2] ({Me3N+(CH2)2O(CH2)2O(CH2)2CO}-[Pen]D(NMe2)T[Trp(7-Me)][Lys(Me)](Ac)[Pen]Y(X3)[2Nal][Thp]EN[3Pal][Sar]-NMe2; disulfide 1-6) |
| 6.5 nM | 145 A^2 | Cc1cccc2c(C[C@@H]3NC(=O)[C@H]([C@@H](C)O)NC(=O)[C@H](CC(=O)N(C)C)NC(=O)[C@@H](NC(=O)CCOCCOCCOCCOCC[N+](C)(C)C)C(C)(C)SSC(C)(C)[C@@H](C(=O)N[C@@H](Cc4ccc(OCCN)cc4)C(=O)N[C@@H](Cc4ccc5ccccc5c4)C(=O)NC4(C(=O)N[C@@H](CCN(C)C(=O)COCCOCC[N+](C)(C)C)C(=O)N[C@@H](CC(N)=O)C(=O)N[C@@H](Cc5cccnc5)C(=O)N(C)CC(=O)N(C)C)CCOCC4)NC(=O)[C@H](CCN(C)C(=O)COCCOCC[N+](C)(C)C)NC3=O)c[nH]c12 [compound 172, cPEG5aCO-Pen(3)-N(N(Me)2)-T-7MeW-Dab(NMecPEG2a)-Pen(3)-AEF-2Nal-THP-Dab(NMecPEG2a)-N-3Pya-Sar-CON(Me)2] ({Me3N+CH2CH2(OCH2CH2)4CO}-[Pen]D(NMe2)T[Trp(7-Me)][X1](X5)[Pen][AEF][2Nal][Thp][X1](X5)N[3Pal][Sar]-NMe2; disulfide 1-6) |
